{"source": "patent US20200115667A1", "about": "“VASCULARIZED MICROFLUIDIC PLATFORMS” (BOARD OF REGENTS, THE UNIVERSITY OF TEXAS SYSTEM, priority 2017, published 2020)", "key": {"[1]": {"test_system": "endothelial lumen of C3Asub28/TIME, MDA-MB-231/TIME, THLE-3/TIME microenvironments", "experiment": "Vessel permeability of multi tissue-on-a-chip microenvironments", "format": "cell-based, human", "conditions": "TNFα treated TIME monoculture vs TIME monoculture, this study", "method": "Transport measurements of varying particle sizes in the multi tissue-on-a-chip microenvironment were conducted for two different scenarios: single microenvironment analysis and microenvironments connected in series to investigate the influence of their interactions and interdependent transport kinetics. When considering only a single microenvironment transport, particles were delivered through the vessel of the microenvironment of interest and transport through the vessel and into the surrounding ECM was measured subsequently and spatially. In these tests, 5 different platform configurations was used: acellular with no cells in the ECM and no cells in the vessel, TIME monoculture consisting only endothelial cells lining the vessel without cells in the ECM, and then vascularized microenvironments denoted as cells in the ECM/cells in the vessel: MDA-MB-231/TIME, C3Asub28/TIME, and THLE-3/TIME microenvironments. […]\nTherefore, endothelial porosity was determined using fluorescence microscopy images of mKate tagged endothelial cells. […] The effect of vessel and ECM porosities and particle size on transport were quantified using two methods, permeability coefficient and intensity profiles of the particles in the vessel and ECM. […] Obtained images were exported to Matlab to quantify intensity readings at each time step. For the first method, permeability coefficient was calculated using Equation 8"}, "[2]": {"test_system": "TIME monoculture endothelium", "experiment": "Porosity of vasculature (vessel confluence, confocal)", "format": "cell-based, human", "conditions": "20 ng/ml perfused 24 hours", "method": "After embedding cells in collagen and successfully preconditioning endothelialized channels for 72 hours to establish a confluent, aligned endothelium, the effect of different co-culture conditions on the vessel confluence was studied as shown in FIG. 20.\nTo create a fully functional aligned endothelium along each channel within each compartment, TIME cell suspension in media (10×10^6 cells/ml) was introduced in the channel and underwent flow preconditioning for 3 days. Within the first 36 hours, wall shear stress was maintained at 0.01 dyn/cm^2 and followed with a linear increase of wall shear stress to 0.1 dyn/cm^2 for 1 hour and maintained at this value for the next 36 hours. […] For positive control samples, 20 ng/ml Tumor Necrosis Factor Alpha (TNFα, RnD Systems, MN) was perfused at 0.1 dyn/cm^2 for 24 hours after the preconditioning protocol before transport studies. To provide flow into the microfluidic platform, 0.5″ long 22G stainless steel needles were inserted though PDMS ports and partially into the collagen microchannels. Autoclaved Tygon silicon tubing ( 1/16″ ID, Saint Global, France) was connected to the inlet needle and a bubble trap, which is connected to a syringe pump that controls the flow rate. […]\nTherefore, endothelial porosity was determined using fluorescence microscopy images of mKate tagged endothelial cells."}, "[3]": {"test_system": "endothelial lumen of C3Asub28/TIME, MDA-MB-231/TIME, THLE-3/TIME microenvironments", "conditions": "reported by Zervantonakis et al.; cited from earlier work"}}, "note": "Read-outs that look alike come from different tables or passages of the source.", "data": [{"substance": "Tumor Necrosis Factor Alpha [TNFα]", "values": [{"measurement": "fold change of permeability between Control − and Control +", "setting": "[1]", "value": "1.59±0.13"}, {"measurement": "effect on vessel compared to Control −", "setting": "[2]", "value": "caused vessel permeabilization with significant pore openings"}, {"measurement": "fold change of permeability between Control − and Control +", "setting": "[3]", "value": "1.79±0.27"}]}]}
